Laboratory results as given in ChEMBL document CHEMBL1201862, “PubChem BioAssay data set” (2004).
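Dose response: 5 concentrations. Exposure: 48 h. Format: 96-well plates. Endpoint: linear interpolation; highest concentration if not reached. GI50 = concentration required for 50% inhibition of growth.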 Calls of active or inactive are those of the source. Cut-off read from the data, not from the text of the source: active = GI50 up to about 1.1 µM and inactive = higher.

Experiments:
Test in all cases: NCI-60 cell line screen, 48 h
786-0 = test system: 786-0
Hs-578T = test system: Hs-578T
DU-145 = test system: DU-145
T47D = test system: T47D
LXFL 529 = test system: LXFL 529
HOP-18 = test system: HOP-18
DMS-114 = test system: DMS-114
XF498 = test system: XF498
RXF 631 = test system: RXF 631

CC(=O)C(CN1CCCCC1)C(c1ccccc1)c1c(O)c2ccccc2oc1=O (stereo unspecified) was tested. Which GI50 (786-0) did it give?
The GI50 was > 100 µM (inactive).

What about the GI50 (Hs-578T) of the same compound?
The GI50 was > 100 µM (inactive).

And the GI50 (DU-145)?
Its GI50 is > 100 µM (inactive).

What about the GI50 (T47D) of the same compound?
The GI50 was > 100 µM (inactive).

For Cc1cc(O)nc(NN2C(Cl)C(=O)C2c2cccc(Cl)c2)n1 (stereo unspecified), which GI50 (LXFL 529) is on record?
Its GI50 is > 10 µM (inactive).

And the GI50 (HOP-18)?
Its GI50 is 24 µM (inactive).

And the GI50 (DMS-114)?
The GI50 was 22.2 µM (inactive).

For O=c1ccc2ccc(CBr)cc2o1, which GI50 (Hs-578T) is on record?
Its GI50 is 9.84 µM (inactive).

And the GI50 (DU-145)?
The GI50 was 17.1 µM (inactive).

And the GI50 (T47D)?
The GI50 was 2.38 µM (inactive).

For COc1cc(C2S/C(=C/c3ccccc3)C(=O)N2c2ccccc2Cl)cc(OC)c1OC (stereo unspecified), which GI50 (Hs-578T) is on record?
Its GI50 is 16.5 µM (inactive).

What about the GI50 (T47D) of the same compound?
Its GI50 is 5.26 µM (inactive).

For C=C1C(=O)O[C@@H]2[C@H](O)[C@@H](C)[C@@H]3C=CC(=O)[C@@]3(C)[C@@H](OC(=O)/C(C)=C/C)[C@H]12, which GI50 (XF498) is on record?
The GI50 was 0.471 µM (active).

What about the GI50 (HOP-18) of the same compound?
The GI50 was 1.9 µM (inactive).

And the GI50 (DMS-114)?
The GI50 was 0.498 µM (active).

With CCCCCCCCCCCCSC(=S)c1c(C)[nH]n(CCCCCCCCCCCC)c1=O as the compound, how does the GI50 (RXF 631) read?
The GI50 was > 100 µM (inactive).

And the GI50 (LXFL 529)?
The GI50 was 67.9 µM (inactive).

What about the GI50 (HOP-18) of the same compound?
The GI50 was 65 µM (inactive).

What about the GI50 (DMS-114) of the same compound?
Its GI50 is 46.1 µM (inactive).

For COc1ccc2nc(-n3c(/C=C/c4ccccc4O)nc4ccccc4c3=O)sc2c1, which GI50 (786-0) is on record?
The GI50 was 35.9 µM (inactive).

What about the GI50 (Hs-578T) of the same compound?
The GI50 was > 100 µM (inactive).

What about the GI50 (DU-145) of the same compound?
The GI50 was > 100 µM (inactive).

Which GI50 (RXF 631) does the source give for COC(=O)C(Cc1ccc2c(c1)OCO2)(NC(=O)c1ccccc1)P(=O)(OC)OC (stereo unspecified) here?
The GI50 was > 100 µM (inactive).

And the GI50 (LXFL 529)?
Its GI50 is > 100 µM (inactive).

And the GI50 (XF498)?
The GI50 was > 100 µM (inactive).

And the GI50 (DMS-114)?
The GI50 was > 100 µM (inactive).

Which GI50 (XF498) does the source give for O=C1CCCN1CCC/N=c1/cc2n(-c3ccc(Cl)cc3)c3ccccc3nc-2cc1Nc1ccc(Cl)cc1 here?
Its GI50 is 19.7 µM (inactive).

And the GI50 (HOP-18)?
The GI50 was 24.8 µM (inactive).

What about the GI50 (DMS-114) of the same compound?
The GI50 was 6.38 µM (inactive).

With O=Cc1ccccc1CCn1c(=O)c2cc3c(=O)n(CCc4ccccc4C=O)c(=O)c3cc2c1=O as the compound, how does the GI50 (LXFL 529) read?
Its GI50 is > 100 µM (inactive).

And the GI50 (DMS-114)?
Its GI50 is > 100 µM (inactive).

With Clc1nc(-[n+]2ccc(-c3ccncc3)cc2)nc(Nc2ccccc2)c1Cl as the compound, how does the GI50 (786-0) read?
The GI50 was 83.8 µM (inactive).

What about the GI50 (Hs-578T) of the same compound?
Its GI50 is > 100 µM (inactive).

What about the GI50 (DU-145) of the same compound?
Its GI50 is > 100 µM (inactive).

What about the GI50 (T47D) of the same compound?
The GI50 was 43.7 µM (inactive).

Which GI50 (786-0) does the source give for COc1ccc(NC(C)=O)cc1N1C(=O)/C(=C\c2ccccc2)SC1c1cc(OC)c(OC)c(OC)c1 (stereo unspecified) here?
The GI50 was 19.2 µM (inactive).

And the GI50 (DU-145)?
Its GI50 is 20.4 µM (inactive).

What about the GI50 (T47D) of the same compound?
Its GI50 is 40.1 µM (inactive).

Which GI50 (XF498) does the source give for CC(C)(C)c1ccc2c(c1)OP1(Oc3c(Cl)cc(Cl)c4cccnc34)(O2)Oc2ccc(C(C)(C)C)cc2O1 here?
Its GI50 is 13.5 µM (inactive).

What about the GI50 (HOP-18) of the same compound?
Its GI50 is 9.98 µM (inactive).

What about the GI50 (DMS-114) of the same compound?
Its GI50 is 2.62 µM (inactive).
